Results published in patent US20250177405A1, “METHODS OF TREATING NEUROLOGICAL AND CARDIOVASCULAR CONDITIONS” (ASTROCYTE PHARMACEUTICALS, INC., priority 2021, published 2025).
Entries after “also recorded” stand apart in the source; their conditions may differ. Like-named read-outs stand apart in the source and are kept apart here.

Assays:
[1] = plasma and brain unbound fractions of I-1 in nonhuman primates; type: in vitro ADME; conditions: nonhuman primate, Normal NHP (n = 3)
[2] = molecular target: T1, A3 receptor in the mouse (Mus musculus, UniProt Q61618); experiment: affinity at mouse A3 receptor; type: binding
T1 sequence (Q61618 1-319): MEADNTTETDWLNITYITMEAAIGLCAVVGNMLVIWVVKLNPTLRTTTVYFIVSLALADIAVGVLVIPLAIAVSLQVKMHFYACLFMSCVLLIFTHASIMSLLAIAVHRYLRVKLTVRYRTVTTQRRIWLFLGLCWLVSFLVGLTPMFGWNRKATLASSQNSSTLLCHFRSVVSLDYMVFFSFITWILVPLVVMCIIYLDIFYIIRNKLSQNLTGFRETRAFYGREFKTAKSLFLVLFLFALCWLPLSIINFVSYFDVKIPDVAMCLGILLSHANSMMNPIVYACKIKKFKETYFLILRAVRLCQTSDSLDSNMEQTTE
Protocol: Similar competition binding assays may be conducted using HEK293 cell membranes expressing mARs using [^125I]I-AB-MECA to label A1 or A3ARs and [^3H]CGS21680 to label A2AARs. IC50 values were converted to Ki values using known methods. Nonspecific binding was determined in the presence of 100 μM NECA.

[3] = system: traumatic brain injury (TBI) in mice; experiment: mouse traumatic brain injury (TBI) model; conditions: in vivo
Protocol: Animals and traumatic brain injury (TBI): TBI is performed with a controlled closed skull injury model as described in Talley-Watts et al. 2012 (J. Neurotrauma 30, 55-66). Following the method described therein, a pneumatic impact device is used to generate a moderate TBI leaving the skull and dura matter intact. To achieve this, C57BL/6 mice are anesthetized with isoflurane (3% induction, 1% maintenance) in 100% oxygen. A body temperature of 37° C. is maintained using a temperature-controlled heated surgical table. A small midline incision is made on the scalp using aseptic surgical techniques. A 5 mm stainless steel disc is positioned on the skull and fixed using superglue on the right parietal bone between bregma and lamda over the somatosensory cortex. The mouse is then positioned on a stage directly under the pneumatic impact tip. […] Mice are placed in a Thermo-Intensive Care Unit (Braintree Scientific model FV-1; 37° C.; 27% O2) and monitored until fully awake and moving freely. […]
Western Blot Analysis for GFAP: At selected survival times, mice are anesthetized under isoflurane and sacrificed. […] The homogenate is transferred to a 2 mL tube and centrifuged at 1000 g for 10 minutes at 4° C. and the supernatant is collected and analyzed. Protein concentration is determined by the BCA assay using a 1:50 dilution. […]

[4] = pharmacokinetics of I-1 after intravenous bolus in normal and tMCAO nonhuman primates; type: in vivo, nonhuman primate; conditions: for C0 / clearance / half-life / Vd: monkey, plasma, iv, 0.5 mg/kg, intravenous bolus 0.5 mg/kg; for Vd: read-out: Vdss
[5] = neonatal pig pharmacokinetics: CSF versus brain extracellular fluid concentrations; type: in vivo; conditions: brain equilibrium dialysis
Description: Using this receptor occupancy estimate, we advanced to studies in neonatal pigs, targeting doses that would yield unbound brain and CSF concentrations that would provide a similar receptor occupancy to that associated with efficacy in the rodent models. In the pig, we had the advantage of conducting pharmacokinetic studies involving CSF collection, brain equilibrium dialysis to directly determine brain unbound extracellular fluid concentrations, plasma concentrations and finally total brain concentrations. […] This was a key study to validate the use of I-1 CSF concentrations to estimate brain receptor occupancy. In the pig efficacy studies, we achieved efficacy at estimated receptor occupancies of around 2%.
Animals. Four-week old female neonatal pigs weighing approximately 7.5 Kg may be used for this study. Animals are equipped with brain microdialysis probes to obtain brain extracellular fluid samples for drug concentration determinations during the study.
Tissue Sampling: Blood samples are obtained at 0.25, 0.5, 1, 2, 4 and 6 hours post-dose. […]
Plasma, brain, brain extracellular fluid and cerebrospinal fluid concentrations of test compound are determined by LC-MS/MS utilizing tolbutamide as an internal standard. For each tissue matrix, standard curves are created and LLOQ/ULOQ concentrations determined.

With `CSc1nc(N)c2ncn([C@H]3C(O)C(O)[C@]4(CO)C[C@H]34)c2n1` (stereo in doubt) [Compound I-1] the fraction unbound ([1]; brain, read-out: Brain Unbound Fraction) was 0.56 ± 0.05, the fraction unbound ([1]; plasma, read-out: Plasma Unbound Fraction) was 0.26 ± 0.05 and the “difference in affinity between I-1 and Cl-IB-MECA” value [2] was “approximately 25,000 fold”. The “efficacy in mouse TBI model” value [3] was “effective; also recorded: significant efficacy”, the “I-1 plasma concentrations after single intravenous bolus” value ([4]; 8 h post-dose) was “below bioanalytical limits of quantitation” and the C0 ([4]; Normal NHP (n = 3)) was 329 ng/mL. It also gave a clearance ([4]; Normal NHP (n = 3)) of 29 mL/min/kg, a half-life ([4]; Normal NHP (n = 3)) of 1.3 h and a Vd ([4]; Normal NHP (n = 3)) of 3.1 L/kg. For the same compound, the C0 ([4]; tMCAO NHP (n = 1)) was 544 ng/mL, the clearance ([4]; tMCAO NHP (n = 1)) was 28 mL/min/kg and the half-life ([4]; tMCAO NHP (n = 1)) was 1.5 h. For the same compound, the Vd ([4]; tMCAO NHP (n = 1)) was 3 L/kg and the “I-1 concentrations in the CSF versus unbound brain extracellular fluid” value [5] was “equal to unbound brain extracellular fluid concentrations”.
